For one test, the target named is T1, Rat Hepatic V1 Receptors (Rattus norvegicus, UniProt P30560).
T1 construct: Rat liver plasma membranes expressing the vasopressin V1 receptor subtypes; from tissue; host or cells: rat liver plasma membranes
Nature of the test: Binding Assay to Rat Hepatic V1 Receptors. The following applies: for pIC50: rat liver membranes, read-out: V1 IC50; for inhibition at 10 µM: 2 h, rat.

Test [1] addresses T2, Rat Kidney Medullary V2 Receptors (Rattus norvegicus, UniProt Q00788).
T2 construct: Medullary tissues from rat kidneys are dissected out; from tissue; host or cells: rat kidney medulla membranes
Nature of the test: Binding Assay to Rat Kidney Medullary V2 Receptors. The following applies: for pIC50: rat kidney medulla membranes, read-out: V2 IC50; for inhibition at 10 µM: rat. The method in brief:
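Membranes were prepared from rat kidney medulla and stored in 50.0 mM Tris-HCl pH 7.4 with 0.2% BSA and 0.1 mM PMSF. Radioligand competition ran 120 min at bench temperature, with 1.0 μM unlabeled ligand defining nonspecific binding. Compounds were added in 50% DMSO; filtration, tritium scintillation counting, IC50 from competition analysis.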

The next test has as its target T3, oxytocin receptors (Rattus norvegicus, UniProt P70536).
T3 construct: The uteri are dissected out, cleaned of fat and connective tissues; from tissue; host or cells: uterus of DES-treated female Sprague-Dawley rats
T3 sequence (P70536 1-388): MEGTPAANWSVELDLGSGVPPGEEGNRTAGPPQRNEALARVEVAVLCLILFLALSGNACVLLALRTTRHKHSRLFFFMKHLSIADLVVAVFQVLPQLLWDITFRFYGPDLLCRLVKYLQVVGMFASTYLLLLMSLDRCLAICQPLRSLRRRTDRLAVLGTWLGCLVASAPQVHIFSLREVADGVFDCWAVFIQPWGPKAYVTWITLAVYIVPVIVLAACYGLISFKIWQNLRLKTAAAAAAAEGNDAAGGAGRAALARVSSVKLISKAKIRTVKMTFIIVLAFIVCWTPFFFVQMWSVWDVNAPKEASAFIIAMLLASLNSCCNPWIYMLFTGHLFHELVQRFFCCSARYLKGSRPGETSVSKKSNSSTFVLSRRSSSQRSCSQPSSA
Nature of the test: Oxytocin Receptor Binding. The following applies: for pIC50: 1.0 nM [3H]oxytocin; for inhibition at 10 µM: [3H]oxytocin. On the procedure: Oxytocin Receptor Binding
Female Sprague-Dawley rats weighing approximately 200-250 g are injected intramuscularly (i.m.) with 0.3 mg/kg of body weight of diethylstilbestrol (DES). The rats are sacrificed 18 hours later under pentobarbital anesthesia. The uteri are dissected out, cleaned of fat and connective tissues and rinsed in 50 ml of normal saline. The tissue pooled from six rats is homogenized in 50 ml of […] Tris.HCl, containing 0.5 mM dithiothreitol and 1.0 mM EDTA, adjusted to pH 7.4, using a polytron at setting 6 with three passes of 10 sec each. The homogenate is passed through two (2) layers of cheesecloth and the filtrate centrifuged at 1000× g for 10 min. The clear supernatant is removed and recentrifuged at 165,000× g for 30 min. The resulting pellet containing the oxytocin receptors is resuspended in 50.0 mM Tris.HCl containing 5.0 mM MgCl2 at pH 7.4, to give a protein concentration of 2.5 mg/ml of tissue suspension. This preparation is used in subsequent binding assays with [^3 H]Oxytocin.
Binding of 3,5-[^3 H]Oxytocin ([^3 H]OT) to its receptors is done in microtiter plates using [^3 H]OT, at various concentrations, in an assay buffer of 50.0 mM Tris.HCl, pH 7.4 and containing 5.0 mM MgCl2, and a mixture of protease inhibitors: BSA, 0.1 mg; aprotinin, 1.0 mg; 1,10-phenanthroline, 2.0 mg; […], 10.0 mg; and PMSF, 0.3 mg per 100 ml of buffer solution. Non-specific binding is determined in the presence of 1.0 uM unlabeled OT. The binding reaction is terminated after 60 min , at 22° C. by rapid filtration through glass fiber filters using a Brandel® cell harvester (Biomedical Research and Development Laboratories, Inc., Gaithersburg, Md.). Competition experiments are conducted at equilibrium using 1.0 nM [^3 H]OT and varying the concentration of the displacing agents. The concentrations of agent displacing 50% of [^3 H]OT at its sites (IC50) are calculated by a computer assisted LUNDON-2 program (LUNDON SOFTWARE INC., Ohio, USA).

The next test concerns Vasopressin V1. The test can be described thus: Vasopressin V1 Antagonist Activity in Conscious Rats (vasopressin vasopressor response). The test is classed as in vivo, rat. The method in brief:
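Conscious rats are restrained supine, and under local 2% procaine a PE 10/20 cannula is passed through the ventral caudal tail artery into the lower abdominal aorta. The caudal vein is cannulated for intravenous dosing. Blood pressure is recorded with a Statham P23Db transducer, and vasopressin injections are repeated after compound dosing. Percent antagonism is calculated against the pre-drug vasopressor response taken as 100%.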

Molecules are shown by their SMILES. pIC50: −log10 of the molar value.

A word on the pIC50: it is the negative decadic logarithm of the IC50, by convention in mol/L. Broadly, the inhibition is the relative decrease from the control value, in per cent. Low readings indicate a response near the control, high ones a response far below the control.

T2 sequence (Q00788 whole entry): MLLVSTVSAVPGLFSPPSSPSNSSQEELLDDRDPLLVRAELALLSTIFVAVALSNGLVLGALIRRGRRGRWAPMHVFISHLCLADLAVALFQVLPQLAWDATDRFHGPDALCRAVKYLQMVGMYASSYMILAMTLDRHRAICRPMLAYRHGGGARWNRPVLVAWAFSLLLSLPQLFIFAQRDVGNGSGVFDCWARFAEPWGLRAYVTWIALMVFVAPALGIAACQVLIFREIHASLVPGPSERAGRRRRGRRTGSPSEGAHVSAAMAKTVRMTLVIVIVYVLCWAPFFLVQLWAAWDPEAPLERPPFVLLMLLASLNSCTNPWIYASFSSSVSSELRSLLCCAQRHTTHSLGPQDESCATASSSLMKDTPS
T1 sequence (P30560 whole entry): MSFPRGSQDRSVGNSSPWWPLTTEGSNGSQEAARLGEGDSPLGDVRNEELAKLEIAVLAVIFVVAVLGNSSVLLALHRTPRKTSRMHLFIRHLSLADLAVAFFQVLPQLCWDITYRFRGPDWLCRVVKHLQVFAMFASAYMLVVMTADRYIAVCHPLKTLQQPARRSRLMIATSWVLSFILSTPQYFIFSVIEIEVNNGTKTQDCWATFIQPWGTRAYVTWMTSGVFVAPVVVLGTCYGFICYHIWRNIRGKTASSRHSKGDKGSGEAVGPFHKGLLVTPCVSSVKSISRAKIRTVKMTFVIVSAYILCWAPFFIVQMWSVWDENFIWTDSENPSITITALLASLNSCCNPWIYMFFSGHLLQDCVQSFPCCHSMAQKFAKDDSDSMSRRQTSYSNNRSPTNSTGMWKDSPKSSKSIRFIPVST

`Cc1cccc(C(=O)Nc2ccc(C(=O)N3Cc4cccn4-c4ccccc43)cc2)c1C` [Example 21, N-[4-(pyrrolo[1,2-a]quinoxalin-5(4H)-ylcarbonyl)phenyl]-2,3-dimethyl-benzamide]: the pIC50 at Rat Hepatic V1 Receptors is 6.03; in test [1], 7.06; at oxytocin receptors it was 5.61. On oxytocin receptors, the inhibition at 10 µM turned out to be 67%.
As to `Cc1ccccc1CC(=O)Nc1ccc(C(=O)N2Cc3cccn3-c3ccccc32)cc1` [Example 36, N-[4-(pyrrolo[1,2-a]quinoxalin-5(4H)-ylcarbonyl)phenyl]-2-methylbenzene-acetamide], at Rat Hepatic V1 Receptors, the pIC50 is 7.00. The pIC50 in test [1] is 7.27. In addition, in the test on Vasopressin V1 (30 mg/kg i.v.), the “Max. % Inhibition” value was 71% and the “Time (of max. % inhibition)” value is recorded as 60 min. At oxytocin receptors, this molecule had a pIC50 of 5.61 and an inhibition at 10 µM of 67%.
For the molecule `Cc1cc(C(=O)N2Cc3cccn3Cc3ccccc32)ccc1NC(=O)c1ccccc1C` [Example 96, N-[4-(5H-pyrrolo[2,1-c][1,4]benzodiazepin-10(11H)-ylcarbonyl)-2-methylphenyl]-2-methylbenzamide], the pIC50 was 7.25 at Rat Hepatic V1 Receptors, 7.96 in test [1] and 5.92 at oxytocin receptors. Moreover, the inhibition at 10 µM at oxytocin receptors was determined as 94%.
Consider `O=C(Nc1ccc(C(=O)N2Cc3cccn3Cc3ccccc32)cc1)c1cccc(Cl)c1Cl` [Example 468, N-[4-(5H-pyrrolo[2,1-c][1,4]benzodiazepin-10(11H)-ylcarbonyl)phenyl]-2,3-dichlorobenzamide], for which the pIC50 on Rat Hepatic V1 Receptors was 7.57; in test [1], 7.54; on oxytocin receptors, 6.59. The “Max. % Inhibition” value in the test on Vasopressin V1 (10 mg/kg i.v.) is on record as 68%. The “Time (of max. % inhibition)” value in the test on Vasopressin V1 (10 mg/kg i.v.) is 30 min. The inhibition at 10 µM on oxytocin receptors was determined as 96%.
As to `Cc1ccccc1C(=O)Nc1ccc(C(=O)N2CCc3nncn3-c3ccccc32)cc1` [Example 486, N-[4-[(4,5-Dihydro-6H-[1,2,4]triazolo[4,3-a][1,5]-benzodiazepin-6-yl)carbonyl)phenyl]-2-methylbenzoate], the figures for the inhibition at 10 µM (on Rat Hepatic V1 Receptors; in test [1]; on oxytocin receptors) were 39%, 77% and 18%, respectively.
Consider `O=C(c1ccc(NP(=O)(c2ccccc2)c2ccccc2)cc1)N1Cc2cccn2Cc2ccccc21` [Example 491, 10-[4-[(Diphenylphosphinyl)amino]benzoyl]-10,11-dihydro-5H-pyrrolo-[2,1-c][1,4]benzodiazepine], for which the inhibition at 10 µM was found to be 82% on Rat Hepatic V1 Receptors, 83% in test [1] and 46% at oxytocin receptors.
As for `O=Cc1ccc2n1Cc1ccccc1N(C(=O)c1ccc(NC(=O)c3ccc(Cl)cc3Cl)cc1)C2` [Example 580, 2,4-Dichloro-N-[4-[(3-formyl-5H-pyrrolo[2,1-c][1,4]benzodiazepin-10(11H)-yl)carbonyl]phenyl]benzamide], the figures for the pIC50 (at Rat Hepatic V1 Receptors; in test [1]; on oxytocin receptors) were 6.70, 7.10 and 5.53, respectively. At oxytocin receptors, this molecule registered an inhibition at 10 µM of 79%.
For `O=C(Nc1ccc(C(=O)N2Cc3cccn3Cc3ccccc32)cc1)C(Cl)c1ccccc1` (stereo not drawn) [Example 583, α-Chloro-N-[4-(5H-pyrrolo[2,1-c][1,4]benzodiazepin-10(11H)-ylcarbonyl)phenyl]benzeneacetamide], in that order: 7.27, 7.57, 5.40 and 61%.
As to `O=C(CCl)Nc1ccc(C(=O)N2Cc3cccn3Cc3ccccc32)cc1` [Example 589, 2-Chloro-N-[4-(5H-pyrrolo[2,1-c][1,4]benzodiazepin-10(11H) -ylcarbonyl)phenyl]acetamide], the inhibition at 10 µM at Rat Hepatic V1 Receptors is 91%; in test [1] it was 82%; at oxytocin receptors, 79%. Moreover, at oxytocin receptors, the pIC50 is 5.54.
With `O=C(CN1CCOCC1)N(Cc1ccccc1Cl)c1ccc(C(=O)N2Cc3cccn3Cc3ccccc32)cc1` [Example 591, N-[(2-Chlorophenyl)methyl]-N-[4-(5H-pyrrolo[2,1-c][1,4]benzodiazepin-10(11H) -ylcarbonyl)phenyl]-4-morpholineacetamide], the inhibition at 10 µM at Rat Hepatic V1 Receptors was found to be 45%; in test [1], 64%; at oxytocin receptors, 29%.
`CCOC(=O)c1ccc2n1Cc1ccccc1N(C(=O)c1ccc(NC(=O)c3ccc(Cl)cc3Cl)c(C)c1)C2` [Example 592, Ethyl 10-[4-[(2,4-dichlorobenzoyl)amino]-3-methylbenzoyl]-10,11-dihydro-5H-pyrrolo[2,1-c][1,4]benzodiazepine-3-carboxylate]: at Rat Hepatic V1 Receptors, the pIC50 is 5.48. Moreover, the negative-log IC50 (pIC50) in test [1] is 6.62. In the test with Vasopressin V1 (30 mg/kg i.v.), the “Max. % Inhibition” value was 37% and the “Time (of max. % inhibition)” value came to 90 min. The inhibition at 10 µM at oxytocin receptors is 41%.
On to `O=C(Nc1ccc(C(=O)N2Cc3ccc(C(=O)C(Cl)(Cl)Cl)n3Cc3ccccc32)cc1)c1ccc(Cl)cc1Cl` [Example 598, N-[4-[[3-(Trichloroacetyl)-5H-pyrrolo[2,1-c][1,4]benzodiazepin-10(11H) -yl]carbonyl]phenyl]-2,4-dichlorobenzamide], for which the results for the inhibition at 10 µM (on Rat Hepatic V1 Receptors; in test [1]; at oxytocin receptors) were 58%, 93% and 2%, respectively.
For the molecule `CN(C)Cc1ccc2n1Cc1ccccc1N(C(=O)c1ccc(NC(=O)c3ccc(Cl)cc3Cl)cc1)C2` [Example 664], the pIC50 was 6.92 at Rat Hepatic V1 Receptors, 7.32 in test [1] and 5.85 at oxytocin receptors. On oxytocin receptors, the inhibition at 10 µM was 95%.
On to `O=C(Nc1ccc(C(=O)N2Cc3ccc(CN4CCCC4)n3Cc3ccccc32)cc1)c1ccc(Cl)cc1Cl` [Example 665, N-[4-[[3-(1-pyrrolidinylmethyl)-5H-pyrrolo[2,1-c][1,4]benzodiazepin-10(11H)-yl]carbonyl]phenyl)-2,4-dichlorobenzamide], for which the pIC50 on Rat Hepatic V1 Receptors was 7.25; in test [1] it was 7.41; on oxytocin receptors, 6.00. The same molecule gave an inhibition at 10 µM on oxytocin receptors of 97%.
On the same counts, the results for `O=C(Nc1ccc(C(=O)N2Cc3ccc(CN4CCOCC4)n3Cc3ccccc32)cc1)c1ccc(Cl)cc1Cl` [Example 666, N-[4-[[3-(4-morpholinomethyl)-5H-pyrrolo[2,1-c][1,4]benzodiazepin-10(11H)-yl]carbonyl]phenyl]-2,4-dichlorobenzamide] are 6.80, 7.89, 5.68 and 83%.
For `CCN(CC)Cc1ccc2n1Cc1ccccc1N(C(=O)c1ccc(NC(=O)c3ccc(Cl)cc3Cl)cc1)C2` [Example 667, N-[4-[[3-[(diethylamino)methyl]-5H-pyrrolo[2,1-c][1,4]benzodiazepin-10(11H)-yl]carbonyl]phenyl]-2,4-dichlorobenzamide], in that order: 6.77, 7.89, 5.80 and 89%.
Take `CCOC(=O)c1ccc2c(c1)N(C(=O)c1ccc(NC(=O)c3ccccc3C)cc1)Cc1cccn1C2` [Example 676, Ethyl 10,11-Dihydro-10-[4-[(2-methylbenzoyl)amino]benzoyl]-5H-pyrrolo[2,1-c][1,4]benzodiazepin-8-carboxylate]: the inhibition at 10 µM is 41% at Rat Hepatic V1 Receptors, 89% in test [1] and 32% on oxytocin receptors.

For the origin of these results see patent US5624923A, “Tricyclic diazepine vasopressin antagonists and oxytocin antagonists” (priority 1995, dated 1997).
